Data on ten molecules can be found in patent publication US20110171192A1, “SUBSTITUTED AMINE DERIVATIVE AND MEDICINAL COMPOSITION COMPRISING SAME AS THE ACTIVE INGREDIENT” (priority 2008, published 2011).

Where only a bound is given, the exact number is not on record here.

The IC50 is the concentration needed to halve the response being measured. In general, ED50 refers to the midpoint of the dose-response relation.

The target of series [1] is T1, human CNT2 (Homo sapiens, UniProt O43868).
T1 construct: expressed in transfected cells
T1 sequence (O43868 1-658): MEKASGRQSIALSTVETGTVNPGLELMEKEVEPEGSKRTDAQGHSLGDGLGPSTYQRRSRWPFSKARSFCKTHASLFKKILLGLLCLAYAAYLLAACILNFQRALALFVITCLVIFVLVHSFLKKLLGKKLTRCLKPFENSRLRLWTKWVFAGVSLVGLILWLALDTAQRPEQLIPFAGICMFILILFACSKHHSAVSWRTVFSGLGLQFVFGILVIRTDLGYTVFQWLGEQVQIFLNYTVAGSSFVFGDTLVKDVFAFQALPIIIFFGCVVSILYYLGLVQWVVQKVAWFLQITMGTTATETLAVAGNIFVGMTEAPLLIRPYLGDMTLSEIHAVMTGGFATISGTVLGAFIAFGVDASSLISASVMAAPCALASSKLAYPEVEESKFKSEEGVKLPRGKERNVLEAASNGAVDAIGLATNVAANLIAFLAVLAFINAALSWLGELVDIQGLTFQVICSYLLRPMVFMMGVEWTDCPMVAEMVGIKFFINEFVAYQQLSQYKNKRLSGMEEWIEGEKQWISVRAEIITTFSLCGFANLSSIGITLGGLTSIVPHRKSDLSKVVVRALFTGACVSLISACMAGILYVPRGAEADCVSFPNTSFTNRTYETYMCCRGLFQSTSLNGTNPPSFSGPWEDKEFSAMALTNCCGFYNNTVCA
Nature of the series: Inhibitory activity against uptake of adenosine through human CNT2. The conditions noted are these: human CNT2 transiently expressing cells, 14C-adenosine 10 μM, 30 minutes at 37° C., NBMPR 10 μM. The format is cell-based. The protocol: Measurement of Inhibitory Activity Against Uptake of Adenosine Through Human CNT2
An Uptake buffer was prepared by addition of a mixture of non-radioisotope labeled (Sigma) and ^14C-labeled (GE Healthcare) adenosine at the final concentration of 10 μM into a buffer, pH 7.4, containing 140 mM sodium chloride, 2 mM potassium chloride, 1 mM calcium chloride, 1 mM magnesium chloride, 10 mM HEPES
2-[4-(2-hydroxyethyl)-1-piperazinyl]thane sulfonic acid, 5 mM tris(hydroxymethyl)aminomethane and 5 mM glucose. For measurement of basal uptake, Basal uptake measurement buffer, which contained 140 mM choline chloride instead of sodium chloride was prepared. In uptake assays, NBMPR was added to Uptake buffer and Basal uptake measurement buffer at the final concentration of 10 μM. In the case of measurement of inhibitory activity of test compounds, test compounds were dissolved in dimethyl sulfoxide, and then appropriately diluted with Uptake buffer as to Measurement buffers. After removing culture medium of human CNT2 transiently expressing cells, Pretreatment buffer (Basal uptake measurement buffer without adenosine and glucose) was added to wells at 500 μL/well and incubated at 37° C. for 10 minutes. After repeating the same step again, Pretreatment buffer was removed and Measurement buffers and Basal uptake measurement buffer were added at 300 μL/well and incubated at 37° C. After incubation for 30 minutes, Measurement buffers and Basal uptake measurement buffer were removed, and the cells were washed with Washing buffer (Basal uptake measurement buffer with non-radioisotope labeled adenosine at 10 μM) at 500 μL/well twice. The cells were solubilized with 0.5 mol/L sodium hydroxide at 200 μL/well, and the cell lysates were transferred into glass vials at 100 μL. After mixing with 5 mL of ACS-II (GE Healthcare Bioscience), radioactivity was measured by means of scintillation counter (Aloka). One hundred % was set to the difference between the uptake in the control group and the basal uptake, and the uptake of adenosine at each test compound concentration was calculated. The test compound concentration inhibiting 50% uptake of adenosine (IC50 value) was calculated using regression line. […] The IC50 value was expressed as A; 1˜10 nM, B; 10˜100 nM or not less than 100 nM;

A short description of series [2]: Stability of nucleic acid transporter inhibitor in solution (acetate buffer pH 3, HPLC). In kind it is physicochemical. The conditions noted are these: for residual ratio of the compound (%): acetate buffer pH 3, 10^−5 M, 25 °C, 20 hours after. The method, then: Stability of Nucleic Acid Transporter Inhibitor in Solution
0.02 mL of comparative compound or compound (1) methanol solution at the concentration of 10^−3 M was added to the 1.98 mL of acetate buffer, pH 3 (final concentration of 10^−5 M). The solutions were incubated at 25 °C, and the reaction solutions were collected at 2, 4 and 20 hours later. Each obtained 0.5 mL of reaction solutions were neutralized and adjusted to 1 mL, and 0.01 mL of 10^−3 M methanol solutions of 4-hydroxy were spiked as internal standard substrate. The solutions were measured by HPLC according to the measurement condition shown as follows, and the ratio (IS ratio) compared the amount of internal standard substrate with the amount of compounds was calculated. The remaining rate of test compounds were obtained to compare the IS ratio with IS ratio of pre-incubation according to the method described above.
HPLC Analytical Condition • column: Inertsil ODS-2 (φ4.6×150 mm) • Mobile phase: 20 mM phosphate buffer (pH 6)/CH3CN=7/3 (w/w) • Detection absorbance: 250 nm • Flow rate: 1 mL/min • Injection volume: 0.02 mL • Time span of measurement: 20 min

Series [3] deals with absorption of adenosine. Nature of the series: Inhibition of absorption of orally given [3H]-adenosine in rats (serum radioactivity). The format is in vivo. The note with it: male SD rats, oral; for ED50: Rattus norvegicus, 50% inhibitory dose on absorption of adenosine, from regression line; for ED50 value (in words): inhibition on absorption of adenosine. The protocol:
Four weeks old male SD rats (Charles river japan corporation) were purchased and the animals over 1 weeks quarantine were used. Body weight of the rats fasted 24 hours from last day were measured and grouped used grouping soft (Stat light #11, Yukums corporation). Test compound and [^3H]-adenosine solution (4 μCi/mL) were given orally at the volume of 2 mL/kg, and about 500 μL of blood were obtained from retro orbital vein. The blood was centrifuged at 3000 rpm for 10 min, and 13 μL of H2O2 solution were added to the 100 μL of resulted serum and placed for 10 min. And 5 mL of liquid scintilation cocktail added and mixed enough, and radio activity was measured using liquid scintillation counter. Inhibitory rate was calculated according to the formula described as follow, and the regression line was obtained from inhibitory rate and its log dose. The 50% inhibitory dose of the compound (ED50) at the inhibition on absorption of adenosine was calculated used regression line formula The results were shown in Table 2.
Inhibitory ratio={1−radio activity of the serum obtained from rats treated with test compound (dpm)/radio activity of the serum obtained from rats treated with vehicle (dpm)}×100

In series [1], `C[C@]1(O)C(n2c(NCc3ccc(-c4ccccc4)c(OCCCCN4CCCCC4)c3)c(C#N)c3c(N)ncnc32)O[C@H](CO)[C@H]1O` (stereo partly drawn) [Compound (6), 4-Amino-7-(3,4-dihydroxy-5-hydroxymethyl-3-methyl-tetrahydro-furan-2-yl)-6-{[2-(4-piperidin-1-yl-butoxy)-biphenyl-4-ylmethyl]-amino}-7H-pyrrolo[2,3-d]pyrimidine-5-carbonitrile] showed a half-inhibitory concentration (IC50) of 10 to 100 nM.

For `N#Cc1c(NCc2ccc(-c3ccccc3)cc2)n(C2O[C@H](CO)[C@@H](O)[C@H]2O)c2ncnc(N)c12` (stereo partly drawn) [Comparative compound, reference compound], in series [2], the “residual ratio of the compound (%)” value is 45.0%.

For `CC(C)(C)[Si](C)(C)OCCCCOc1cc(CNc2c(C#N)c3c(N)ncnc3n2C2O[C@H](CO)[C@@H](O)[C@@]2(C)O)ccc1-c1ccccc1` (stereo partly drawn) [Compound (5), 4-Amino-6-({2-[4-(tert-butyl-dimethyl-silanyloxy)-butoxy]-biphenyl-4-ylmeth-yl}-amino)-7-(3,4-dihydroxy-5-hydroxymethyl-3-methyl-tetrahydro-furan-2-yl)-7H-pyrrolo[2,3-d]pyrimidine-5-carbonitrile], the concentration for half-maximal inhibition (IC50) in series [1] was not below 100 nM.

As to `C[C@]1(O)C(n2c(NCc3ccc(-c4ccccc4)c(OCCCCCl)c3)c(C#N)c3c(N)ncnc32)O[C@H](CO)[C@H]1O` (stereo partly drawn) [Compound (3), 4-Amino-6-{[2-(4-chloro-butoxy)-biphenyl-4-ylmethyl]-amino}-7-(3,4-dihydroxy-5-hydroxymethyl-3-methyl-tetrahydro-furan-2-yl)-7H-pyrrolo[2,3-d]pyrimidine-5-carbonitrile], the IC50 in series [1] lay in the range of 10 to 100 nM. In series [3], the median effective dose (ED50) was 1.1 mg/kg and the “ED50 value (in words)” value is “high ED50 value”.

For the molecule `C[C@]1(O)C(n2c(NCc3ccc(-c4ccccc4)c(OCCCCN4CCOCC4)c3)c(C#N)c3c(N)ncnc32)O[C@H](CO)[C@H]1O` (stereo partly drawn) [Compound (4), 4-Amino-7-(3,4-dihydroxy-5-hydroxymethyl-3-methyl-tetrahydro-furan-2-yl)-6-{[2-(4-morpholin-4-yl-butoxy)-biphenyl-4-ylmethyl]-amino}-7H-pyrrolo[2,3-d]pyrimidine-5-carbonitrile], the half-maximal inhibitory concentration (IC50) in series [1] lay within 10 to 100 nM. Moreover, in series [3], the ED50 amounted to 0.51 mg/kg and the “ED50 value (in words)” value is recorded as “high ED50 value”.

`C[C@]1(O)C(n2c(NCc3ccc(-c4ccccc4)c(OCCCCO)c3)c(C#N)c3c(N)ncnc32)O[C@H](CO)[C@H]1O` (stereo partly drawn) [Compound (8), 4-Amino-7-(3,4-dihydroxy-5-hydroxymethyl-3-methyl-tetrahydro-furan-2-yl)-6-{[2-(4-hydroxy-butoxy)-biphenyl-4-ylmethyl]-amino}-7H-pyrrolo[2,3-d]pyrimidine-5-carbonitrile] registered an IC50 in series [1] of 1 to 10 nM. Further, in series [3], the ED50 amounted to 0.78 mg/kg and the “ED50 value (in words)” value is listed as “high ED50 value”.

In series [1], `CCOC(=O)CCCCOc1cc(CNc2c(C#N)c3c(O)ncnc3n2C2O[C@H](CO)[C@@H](O)[C@@]2(C)O)ccc1-c1ccccc1` (stereo partly drawn) [Compound (9), 5-(4-{[5-Cyano-7-(3,4-dihydroxy-5-hydroxymethyl-3-methyltetrahydro-furan-2-yl)-4-hydroxy-7H-pyrrolo[2,3-d]pyrimidin-6-ylamino]methyl}-biphenyl-2-yloxy)-pentanoic acid ethyl ester] displayed a 50% inhibitory concentration (IC50) not below 100 nM.

Regarding `C[C@@]1(O)[C@H](O)[C@@H](CO)O[C@H]1n1c(NCc2ccc(-c3ccccc3)cc2)c(C#N)c2c(N)ncnc21` [Compound (1), 4-Amino-6-[(biphenyl-4-ylmethyl)-amino]-7-(3,4-dihydroxy-5-hydroxymethyl-3-methyl-tetrahydro-furan-2-yl)-7H-pyrrolo[2,3-d]pyrimidine-5-carbonitrile], the “residual ratio of the compound (%)” value in series [2] is on record as 85.0%. In addition, the “Stability in pH3 solution (in words)” value in series [2] (pH3 solution, versus comparative compound) is “better than that of comparative compound”. Besides, in series [1], the half-maximal inhibitory concentration (IC50) is not below 100 nM. Further, in series [3], the median effective dose (ED50) came out at 1.3 mg/kg and the “ED50 value (in words)” value is “high ED50 value”.

In the case of `CN(C)C(=O)CCCCOc1cc(CNc2c(C#N)c3c(N)ncnc3n2C2O[C@H](CO)[C@@H](O)[C@@]2(C)O)ccc1-c1ccccc1` (stereo partly drawn) [Compound (7), 5-(4-{[4-Amino-5-cyano-7-(3,4-dihydroxy-5-hydroxymethyl-3-methyltetrahydrofuran-2-yl)-7H-pyrrolo[2,3-d]pyrimidin-6-ylamino]-methyl}-biphenyl-2-yloxy)-pentanoic acid dimethylamide], the IC50 in series [1] is 1 to 10 nM. Also, in series [3], the median effective dose (ED50) is 3 mg/kg and the “ED50 value (in words)” value is “high ED50 value”.

Turning to `CCOC(=O)CCCCOc1cc(CNc2c(C#N)c3c(N)ncnc3n2C2O[C@H](CO)[C@@H](O)[C@@]2(C)O)ccc1-c1ccccc1` (stereo partly drawn) [Compound (2), 5-(4-{[4-Amino-5-cyano-7-(3,4-dihydroxy-5-hydroxymethyl-3-methyl-tetrahydrofuran-2-yl)-7H-pyrrolo[2,3-d]pyrimidin-6-ylamino]-methyl}-biphenyl-2-yloxy)-pentanoic acid ethyl ester], the IC50 in series [1] lay within 10 to 100 nM. In series [3], the ED50 is 1.4 mg/kg and the “ED50 value (in words)” value is reported as “high ED50 value”.
